Biological target: T1, human IKK-2 (rhIKK-2 homodimer) (Homo sapiens, UniProt O14920)
T1 construct: FLAG (DYKDDDDKD) (C); made in house; host or cells: insect cells (baculovirus, pFastBac)
T1 sequence (O14920 1-756): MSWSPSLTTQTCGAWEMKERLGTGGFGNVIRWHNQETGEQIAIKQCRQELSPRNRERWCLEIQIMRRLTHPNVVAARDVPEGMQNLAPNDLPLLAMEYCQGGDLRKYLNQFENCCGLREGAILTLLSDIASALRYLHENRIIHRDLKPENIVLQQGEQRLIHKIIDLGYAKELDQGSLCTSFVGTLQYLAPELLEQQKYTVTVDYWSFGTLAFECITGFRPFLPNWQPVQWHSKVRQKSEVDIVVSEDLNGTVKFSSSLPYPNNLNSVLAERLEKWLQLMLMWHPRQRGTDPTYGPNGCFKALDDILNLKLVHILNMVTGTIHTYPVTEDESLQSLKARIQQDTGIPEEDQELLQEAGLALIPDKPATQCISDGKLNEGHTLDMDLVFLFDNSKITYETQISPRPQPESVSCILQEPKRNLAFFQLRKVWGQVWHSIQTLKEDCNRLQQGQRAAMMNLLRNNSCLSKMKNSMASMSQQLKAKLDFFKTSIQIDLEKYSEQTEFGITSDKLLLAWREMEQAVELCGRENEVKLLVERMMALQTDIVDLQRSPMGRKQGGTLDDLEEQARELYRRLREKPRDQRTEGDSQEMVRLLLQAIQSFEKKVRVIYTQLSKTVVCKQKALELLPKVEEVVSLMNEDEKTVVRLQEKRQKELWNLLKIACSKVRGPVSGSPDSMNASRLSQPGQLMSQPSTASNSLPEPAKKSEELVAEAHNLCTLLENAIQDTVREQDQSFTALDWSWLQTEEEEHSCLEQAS
Test: IKK-2 Resin Enzyme Assay (Human IKK-2 Enzyme Assay)
Assay type: biochemical
Settings: human IKK-2, resin enzyme assay; read-out: IC50 (μM) hIKK-2
Procedure, shortened: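 C-terminally FLAG-tagged human IKK-2 homodimer, baculovirus-expressed in insect cells and anti-FLAG purified. Reaction mix: 5 μM biotinylated IκBα peptide (Ser32/Ser36 region), 1 μM ATP with [γ-33P]ATP, 2 mM MgCl2, 2 mM MnCl2, 10 mM NaF, 1 mM DTT, 25 mM HEPES pH 7.6. Incubated 30 min at 25 °C; IC50 derived.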

IC50 [µM]	Compound
0.05	NC(=O)Nc1cn(-c2ccc(-c3ccc(C(N)=O)cc3)cc2)nc1C(N)=O [Example 149, 4-[(aminocarbonyl)amino]-1-[4′-(aminocarbonyl)-1,1′-biphenyl-4-yl]-1H-pyrazole-3-carboxamide]
0.63	COc1ccc(CNC(=O)c2ccc(-c3ccc(-n4cc(NC(N)=O)c(C(N)=O)n4)cc3)cc2F)cc1 [Example 150, 4-[(aminocarbonyl)amino]-1-(3′-fluoro-4′-{[(4-methoxybenzyl)amino]carbonyl}-1,1′-biphenyl-4-yl)-1H-pyrazole-3-carboxamide]
0.31	NC(=O)Nc1cn(-c2ccc(-c3ccc(C(=O)NCc4ccccc4)c(F)c3)cc2)nc1C(N)=O [Example 151, 4-[(aminocarbonyl)amino]-1-{4′-[(benzylamino)carbonyl]-3′-fluoro-1,1′-biphenyl-4-yl}-1H-pyrazole-3-carboxamide]
0.11	CNC(=O)c1ccc(-c2ccc(-n3cc(NC(N)=O)c(C(N)=O)n3)cc2)cc1F [Example 152, 4-[(aminocarbonyl)amino]-1-{3′-fluoro-4′-[(methylamino)carbonyl]-1,1′-biphenyl-4-yl}-1H-pyrazole-3-carboxamide]
0.32	COc1cccc(CNC(=O)c2ccc(-c3ccc(-n4cc(NC(N)=O)c(C(N)=O)n4)cc3)cc2F)c1 [Example 153, 4-[(aminocarbonyl)amino]-1-(3′-fluoro-4′-{[(3-methoxybenzyl)amino]carbonyl}-1,1′-biphenyl-4-yl)-1H-pyrazole-3-carboxamide]
0.26	COc1ccccc1CNC(=O)c1ccc(-c2ccc(-n3cc(NC(N)=O)c(C(N)=O)n3)cc2)cc1F [Example 154, 4-[(aminocarbonyl)amino]-1-(3′-fluoro-4′-{[(2-methoxybenzyl)amino]carbonyl}-1,1′-biphenyl-4-yl)-1H-pyrazole-3-carboxamide]
0.45	NC(=O)Nc1cn(-c2ccc(-c3ccc(C(=O)NCc4ccc(F)cc4)c(F)c3)cc2)nc1C(N)=O [Example 155, 4-[(aminocarbonyl)amino]-1-(3′-fluoro-4′-{[(4-fluorobenzyl)amino]carbonyl}-1,1′-biphenyl-4-yl)-1H-pyrazole-3-carboxamide]
0.61	NC(=O)Nc1cn(-c2ccc(-c3ccc(C(=O)NCc4cccc(F)c4)c(F)c3)cc2)nc1C(N)=O [Example 156, 4-[(aminocarbonyl)amino]-1-(3′-fluoro-4′-{[(3-fluorobenzyl)amino]carbonyl}-1,1′-biphenyl-4-yl)-1H-pyrazole-3-carboxamide]
8.08	NC(=O)Nc1cn(-c2ccc(-c3ccc(C(=O)NCc4ccccc4F)c(F)c3)cc2)nc1C(N)=O [Example 157, 4-[(aminocarbonyl)amino]-1-(3′-fluoro-4′-{[(2-fluorobenzyl)amino]carbonyl}-1,1′-biphenyl-4-yl)-1H-pyrazole-3-carboxamide]
4.04	CN(Cc1ccc(F)cc1)C(=O)c1ccc(-c2ccc(-n3cc(NC(N)=O)c(C(N)=O)n3)cc2)cc1F [Example 158, 4-[(aminocarbonyl)amino]-1-(3′-fluoro-4′-{[(4-fluorobenzyl)(methyl)amino]carbonyl}-1,1′-biphenyl-4-yl)-1H-pyrazole-3-carboxamide]
5.97	NC(=O)Nc1cn(-c2ccc(-c3ccc(C(=O)NC4CCCc5ccccc54)c(F)c3)cc2)nc1C(N)=O (stereo not drawn) [Example 159, 4-[(aminocarbonyl)amino]-1-{3′-fluoro-4′-[(1,2,3,4-tetrahydronaphthalen-1-ylamino)carbonyl]-1,1′-biphenyl-4-yl}-1H-pyrazole-3-carboxamide]
1.36	NC(=O)Nc1cn(-c2ccc(-c3cc(F)ccc3OCC(=O)N3CCOCC3)cc2)nc1C(N)=O [Example 161, 4-[(aminocarbonyl)amino]-1-[5′-fluoro-2′-(2-morpholin-4-yl-2-oxoethoxy)-1,1′-biphenyl-4-yl]-1H-pyrazole-3-carboxamide]
5.99	CC(=O)OCc1cccc(-c2ccc(-n3cc(NC(N)=O)c(C(N)=O)n3)cc2)c1 [Example 165, 4′-{3-(aminocarbonyl)-4-[(aminocarbonyl)amino]-1H-pyrazol-1-yl}-1,1′-biphenyl-3-yl)methyl acetate]
0.38	N#CCOc1cccc(-c2ccc(-n3cc(NC(N)=O)c(C(N)=O)n3)cc2)c1 [Example 166, 4-[(aminocarbonyl)amino]-1-[3′-(cyanomethoxy)-1,1′-biphenyl-4-yl]-1H-pyrazole-3-carboxamide]
0.5	N#CCOc1ccccc1-c1ccc(-n2cc(NC(N)=O)c(C(N)=O)n2)cc1 [Example 167, 4-[(aminocarbonyl)amino]-1-[2′-(cyanomethoxy)-1,1′-biphenyl-4-yl]-1H-pyrazole-3-carboxamide]
1.99	NC(=O)Nc1cn(-c2ccc(-c3cccc(OCc4ccccn4)c3)cc2)nc1C(N)=O [Example 168, 4-[(aminocarbonyl)amino]-1-[3′-(pyridin-2-ylmethoxy)-1,1′-biphenyl-4-yl]-1H-pyrazole-3-carboxamide]
1.83	CC(C#N)Oc1cccc(-c2ccc(-n3cc(NC(N)=O)c(C(N)=O)n3)cc2)c1 (stereo not drawn) [Example 169, 4-[(aminocarbonyl)amino]-1-[3′-(1-cyanoethoxy)-1,1′-biphenyl-4-yl]-1H-pyrazole-3-carboxamide]
1.58	NC(=O)Nc1cn(-c2ccc(-c3cccc(OCc4cccnc4)c3)cc2)nc1C(N)=O [Example 170, 4-[(aminocarbonyl)amino]-1-[3′-(pyridin-3-ylmethoxy)-1,1′-biphenyl-4-yl]-1H-pyrazole-3-carboxamide]
6.84	NC(=O)Nc1cn(-c2ccc(-c3cccc(OCc4ccncc4)c3)cc2)nc1C(N)=O [Example 171, 4-[(aminocarbonyl)amino]-1-[3′-(pyridin-4-ylmethoxy)-1,1′-biphenyl-4-yl]-1H-pyrazole-3-carboxamide]
0.18	N#CCOc1ccccc1-c1cccc(-n2cc(NC(N)=O)c(C(N)=O)n2)c1 [Example 176, 4-[(aminocarbonyl)amino]-1-[2′-(cyanomethoxy)-1,1′-biphenyl-3-yl]-1H-pyrazole-3-carboxamide]
0.51	N#CCOc1cccc(-c2ccc(-n3cc(NC(N)=O)c(C(N)=O)n3)c(F)c2)c1 [Example 179, 4-[(aminocarbonyl)amino]-1-[3′-(cyanomethoxy)-3-fluoro-1,1′-biphenyl-4-yl]-1H-pyrazole-3-carboxamide]
0.228	CC(C#N)Oc1ccc(F)cc1-c1ccc(-n2cc(NC(N)=O)c(C(N)=O)n2)cc1 (stereo not drawn) [Example 180, 4-[(aminocarbonyl)amino]-1-[2′-(1-cyanoethoxy)-5′-fluoro-1,1′-biphenyl-4-yl]-1H-pyrazole-3-carboxamide]
0.105	CN(C)C(=O)COc1cccc(-c2ccc(-n3cc(NC(N)=O)c(C(N)=O)n3)cc2)c1 [Example 181, 4-[(aminocarbonyl)amino]-1-{3′-[2-(dimethylamino)-2-oxoethoxy]-1,1′-biphenyl-4-yl}-1H-pyrazole-3-carboxamide]
11.2	CC(C)(C)OC(=O)COc1ccc(F)cc1-c1ccc(-n2cc(NC(N)=O)c(C(N)=O)n2)cc1 [Example 182, tert-butyl [(4′-{3-(aminocarbonyl)-4-[(aminocarbonyl)amino]-1H-pyrazol-1-yl}-5-fluoro-1,1′-biphenyl-2-yl)oxy]acetate]
